What was measured:
rat mGlu 5a receptor = biological target: T1, rat mGlu 5a receptor (Rattus norvegicus, UniProt P31424); experiment: [Ca2+]i measurement (FLIPR) on mGlu 5a transfected EBNA cells, antagonist mode; type: cell-based; conditions: rat mGlu 5a transiently transfected EBNA cells; Fluo 3-AM; tested against 10 μM glutamate as agonist
T1 construct: expressed in transfected cells; host or cells: EBNA cells (transient transfection)
Experimental: The pharmacological activity of the compounds was tested using the following method:
cDNA encoding rat mGlu 5a receptor was transiently transfected into EBNA cells using a procedure described by E. -J. Schlaeger and K. Christensen (Cytotechnology 1998, 30, 71–83). [Ca^2+]i measurements were performed on mGlu 5a transfected EBNA cells after incubation of the cells with Fluo 3-AM (obtainable by FLUKA, 0.5 μM final concentration) for 1 hour at 37° C. followed by 4 washes with assay buffer (DMEM supplemented with Hank's salt and 20 mM HEPES. [Ca^2+]i measurements were done using a fluorometric imaging plate reader (FLIPR, Molecular Devices Corporation, La Jolla, Calif., USA). When compounds were evaluated as antagonists they were tested against 10 μM glutamate as agonist.
The inhibition (antagonists) curves were fitted with a four parameter logistic equation giving IC50, and Hill coefficient using the iterative non linear curve fitting software Origin (Microcal Software Inc., Northampton, Mass., USA).

T1 sequence (P31424 21-1171 isoform P31424-2 limits assumed): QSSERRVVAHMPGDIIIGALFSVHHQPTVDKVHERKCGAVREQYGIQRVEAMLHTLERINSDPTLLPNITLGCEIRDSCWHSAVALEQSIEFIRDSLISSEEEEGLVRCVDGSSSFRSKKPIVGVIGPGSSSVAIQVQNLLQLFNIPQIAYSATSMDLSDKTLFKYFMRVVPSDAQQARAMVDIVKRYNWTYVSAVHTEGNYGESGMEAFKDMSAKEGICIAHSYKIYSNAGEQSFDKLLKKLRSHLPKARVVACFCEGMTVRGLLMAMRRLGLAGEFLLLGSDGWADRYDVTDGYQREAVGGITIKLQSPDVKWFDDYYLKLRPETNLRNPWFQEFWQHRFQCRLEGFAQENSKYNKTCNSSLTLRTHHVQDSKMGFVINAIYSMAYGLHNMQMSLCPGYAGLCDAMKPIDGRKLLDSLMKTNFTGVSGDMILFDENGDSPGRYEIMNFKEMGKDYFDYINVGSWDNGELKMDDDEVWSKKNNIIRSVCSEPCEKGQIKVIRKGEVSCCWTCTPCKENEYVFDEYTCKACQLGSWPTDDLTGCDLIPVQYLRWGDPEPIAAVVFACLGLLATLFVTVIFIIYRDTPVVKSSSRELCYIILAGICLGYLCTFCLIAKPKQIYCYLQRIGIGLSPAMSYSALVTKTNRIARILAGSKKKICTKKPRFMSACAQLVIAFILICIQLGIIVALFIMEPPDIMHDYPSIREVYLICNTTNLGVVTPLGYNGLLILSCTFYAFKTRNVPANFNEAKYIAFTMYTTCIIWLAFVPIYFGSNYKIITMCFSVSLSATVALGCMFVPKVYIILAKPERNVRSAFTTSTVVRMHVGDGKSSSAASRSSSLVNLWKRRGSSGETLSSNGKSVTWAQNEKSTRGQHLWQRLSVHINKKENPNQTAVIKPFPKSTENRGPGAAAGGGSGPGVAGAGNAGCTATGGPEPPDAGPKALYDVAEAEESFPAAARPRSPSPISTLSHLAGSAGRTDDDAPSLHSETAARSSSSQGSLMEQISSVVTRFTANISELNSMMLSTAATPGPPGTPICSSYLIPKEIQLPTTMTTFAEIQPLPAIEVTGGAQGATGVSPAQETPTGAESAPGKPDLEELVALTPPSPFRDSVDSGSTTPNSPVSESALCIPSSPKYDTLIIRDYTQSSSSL

SMILES	IC50 (rat mGlu 5a receptor) [nM]	melting point [°C]
CCOC(=O)CSc1ncc(Cc2ccccc2)c(N)n1 [Example 3, (4-Amino-5-benzyl-pyrimidin-2-ylsulfanyl)-acetic acid ethyl ester]	140	
CCOC(=O)CSc1ncc(Cc2cccn2C)c(N)n1 [Example 4, [4-Amino-5-(1-methyl-1H-pyrrol-2-ylmethyl)-pyrimidin-2-ylsulfanyl]-acetic acid ethyl ester]	380	
CCOC(=O)CSc1ncc(-c2ccc(Cl)cc2Cl)c(N)n1 [Example 5, [4-Amino-5-(2,4-dichloro-phenyl)-pyrimidin-2-ylsulfanyl]-acetic acid ethyl ester]	3850	
CCOC(=O)CSc1ncc(Cc2ccc(Br)cc2)c(N)n1 [Example 6, [4-Amino-5-(4-bromo-benzyl)-pyrimidin-2-ylsulfanyl]-acetic acid ethyl ester]	180	
C#CCSc1ncc(Cc2cccs2)c(N)n1 [Example 8, 2-Prop-2-ynylsulfanyl-5-thiophen-2-ylmethyl-pyrimidin-4-ylamine]	1390	
C=CCSc1ncc(Cc2cccs2)c(N)n1 [Example 9, 2-Allylsulfanyl-5-thiophen-2-ylmethyl-pyrimidin-4-ylamine]	2790	
Nc1nc(SCc2ncon2)ncc1Cc1cccs1 [Example 11, 2-([1,2,4]Oxadiazol-3-ylmethylsulfanyl)-5-thiophen-2-ylmethyl-pyrimidin-4-ylamine]	400	
CCOC(=O)CSc1ncc(Cc2ccsc2)c(N)n1 [Example 12, (4-Amino-5-thiophen-3-ylmethyl-pyrimidin-2-ylsulfanyl)-acetic acid ethyl ester]	180	
CCOC(=O)CSc1ncc(Cc2ccoc2)c(N)n1 [Example 13, (4-Amino-5-furan-3-ylmethyl-pyrimidin-2-ylsulfanyl)-acetic acid ethyl ester]	160	
CCOC(=O)CSc1ncc(C(=O)OCC)c(N)n1 [Example 19, 4-Amino-2-ethoxycarbonylmethylsulfanyl-pyrimidine-5-carboxylic acid ethyl ester]	270	
CCNc1nc(SCC(=O)OCC)ncc1Cc1cccs1 [Example 21, (4-Ethylamino-5-thiophen-2-ylmethyl-pyrimidin-2-ylsulfanyl)-acetic acid ethyl ester]	600	
C=CCOC(=O)CSc1ncc(Cc2ccccc2)c(N)n1 [Example 22, (4-Amino-5-benzyl-pyrimidin-2-ylsulfanyl)-acetic acid allyl ester]	120	
CC1CC1COC(=O)CSc1ncc(Cc2ccccc2)c(N)n1 (centres unmarked) [Example 24, (4-Amino-5-benzyl-pyrimidin-2-ylsulfanyl)-acetic acid 2-methyl-cyclopropylmethyl ester]	630	
Nc1nc(SCC(=O)OCC2CCC2)ncc1Cc1ccccc1 [Example 25, (4-Amino-5-benzyl-pyrimidin-2-ylsulfanyl)-acetic acid cyclobutylmethyl ester]	1460	
Nc1nc(SCC(=O)OCC2CC2)ncc1Cc1ccccc1 [Example 29, (4-Amino-5-benzyl-pyrimidin-2-ylsulfanyl)-acetic acid cyclopropylmethyl ester]	200	
CCOC(=O)CSc1ncc(Cc2cccs2)c(NCC(C)C)n1 [Example 31]	160	
Nc1nc(SCc2nc(C3CC3)no2)ncc1Cc1ccccc1 [Example 33, 5-Benzyl-2-(3-cyclopropyl-[1,2,4]oxadiazol-5-ylmethylsulfanyl)-pyrimidin-4-ylamine]		94

— patent publication US7138404B2, “4-aminopyrimidine derivatives” (Hoffmann-La Roche Inc., priority 2001, dated 2006)
